“Also recorded” adds a separate entry of the source.
Legend:
pig oral mucosa = assay: Dehydration effect towards oral mucosa (immersion of tissue in solution)
Protocol: Fresh pig oral mucosa (300-700 mg) was equilibrated at room temperature at 40% relative humidity (RH), weighed and immersed in 5 ml of the investigated solution for 20 h at room temperature (RT, ˜20-25° C.). The tissue was removed from the solution, dried by blotting and weighed. Finally, it was dried at +40° C. for 24 h.

TNF-α production = TNF-α production by LPS-stimulated human PBMC (ELISA); type: cell-based
Protocol: (§1) Human venous blood was sampled and collected in heparinized vials and mix well by gently inverting the tubes several times. Human peripheral blood mononuclear cells (PBMCs) were isolated by gradient centrifugation using Ficoll-Histopaque®. Cells were washed (centrifuged at 400×g for 10 min) with sterile phosphate-buffered saline (PBS). PBS was discarded, and the cell pellet re-suspended in sterile Dulbecco's Modified Eagle's Medium (DMEM). Cells were then counted by haemocytometer using white blood cell (W.B.C.) diluting fluid: 15 μl of cell suspension was added to 15 μl trypan blue and mixed well. The cell suspension was loaded in a haemocytometer and the cells were counted. The cell concentration was adjusted at 2×10^6 cells/ml with DMEM supplemented with 1% of penicillin-streptomycin solution and 5% human serum. The approximate yield of cells varied between 107-10^8 cells/ml. 1 ml of cell suspension was seeded in a 24 well culture plate. 1 ml propane-1,2-diol diluted in DMEM was added at various concentrations (from 0 to 100 mM). Phytohemagglutinin (PHA), 15 μl, was added to a final concentration of 1 μg/ml. When the effect of different concentrations of PHA were studied (FIG. 1), the range used varied from 0 to 25 μg/ml. The plate was incubated for 24 h at +37° C. and in 5% CO2. The plate was then frozen at −20° C. until further analysis. After thawing the samples, an enzyme-linked immunosorbent assay (ELISA) was performed according to the manufacturer's specifications. In vitro culture of human PBMCs was performed as described above in Example 1. In brief, 1 ml propane-1,2-diol was added to 1 ml PBMC to obtain a range of 30 final concentrations (0 to 100 mM). 15 μl LPS was added to a final concentration of 100 nM and the cell suspension was incubated at 37° C. in 5% CO2 for 24 h. The plate was then frozen in −20° C. until the ELISA analysis. TNF-α production was determined by ELISA using procedures (BioSite, Sweden; Art. No: EA102165) according to the manufacturer's specifications.

IL-2 production = IL-2 production by PHA-stimulated human PBMC (ELISA); type: cell-based; conditions: 100 mM propane-1,2-diol, 1 μg/ml PHA-stimulated PBMC, FIG. 4
Protocol: as §1, with “[…] IL-2” for “The plate was incubated for 24 h at +37° C. and in 5% CO2. The plate was then frozen at −20° C. until further analysis. After thawing the samples, an enzyme-linked immunosorbent assay (ELISA) was performed according to the manufacturer's specifications. In vitro culture of human PBMCs was performed as described above in Example 1. In brief, 1 ml propane-1,2-diol was added to 1 ml PBMC to obtain a range of 30 final concentrations (0 to 100 mM). 15 μl LPS was added to a final concentration of 100 nM and the cell suspension was incubated at 37° C. in 5% CO2 for 24 h. The plate was then frozen in −20° C. until the ELISA analysis. TNF-α”

PBMC = type: cell-based, human
Protocol: This Example investigated whether the inhibition of TNF-α in Example 2 and/or IL-2 in Example 3 was due to cell death of the PBMCs.
PBMCs were isolated from one donor as described in Example 1. 1 ml of 2×10^6 PBMC cells were added to 12 wells in a 24-well plate. 1 ml of 2000 mM propane-1,2-diol was added to two of the wells to get a final concentration of 1000 mM (8% propane-1,2-diol). The same procedure was used to obtain decreasing concentrations of propane-1,2-diol (500 mM (4% propane-1,2-diol), 250 mM (2% propane-1,2-diol), 125 mM (1% propane-1,2-diol), 62.5 mM (0.5% propane-1,2-diol)). After 24 hrs incubation at 37° C. and 5% CO2, 15 μl of each cell culture was mixed with 15 μl of tryptan blue and dead cells out of 100 cells were counted under a light microscope.

In the case of `CC(O)CO` (stereo not shown) [propane-1,2-diol], the “dehydration effect at 1% and 5%” value (pig oral mucosa; propane-1,2-diol solutions at concentration of 1% and 5%) was “No dehydration effect”, the “dehydration effect at 50%, 80% and 100%” value (pig oral mucosa; propane-1,2-diol solutions at concentrations 50%, 80% and 100%) was “dehydration effect was evident” and the “inhibition of TNF-α, concentration dependence” value (TNF-α production; 0 to 100 mM, LPS-stimulated PBMC from 4 individuals, FIGS. 1A-1D) was “concentration-dependent inhibition”. The “inhibition of TNF-α at 100 mM” value (TNF-α production; 100 mM propane-1,2-diol, LPS-stimulated PBMC from 4 individuals, 24 h, FIGS. 1A-1D) was “maximal inhibition; also recorded: strong inhibition”, the “inhibition of TNF-α in PBMC from 12 individuals” value (TNF-α production; 100 mM, LPS-stimulated PBMCs from 12 different individuals, FIG. 2) was “inhibition was observed in all 12 individuals” and the “IL-2 production reduced, patient A” value (IL-2 production; patient A) was 53%. For the same molecule, the “IL-2 production reduced, patient B” value (IL-2 production; patient B) was 64%, the “cell death of peripheral blood mononuclear cells at 5% (w/v)” value (PBMC) was “induced a significant cell death” and the “toxic effect / cell death of PBMCs, up to 1%” value (PBMC) was “did not have any significant toxic effect”. The “toxic effects / cell death at an amount according to the invention” value (PBMC) was “does not have any significant toxic effects”.

— patent US12544343B2, “Treatment of inflammatory condition in mucous membrane or skin” (MUCOCORT AB, priority 2019, dated 2026)
